# Laboratory results reported in ChEMBL document CHEMBL5030535, “Conjugates Derived from Lapatinib Derivatives with Cancer Cell Stemness Inhibitors Effectively Reversed Drug Resistance in Triple-Negative Breast Cancer” (J Med Chem, 2021).
# Activity calls are given as the source filed them. The calls are words filed in the database; no cut-off is given here.
# Key:
# MDA-MB-231 [1] = assay: Inhibition of cell stemness in human drug-tolerant MDA-MB-231/lapatinib cells assessed as inhibition of Kif4 expression at 20 uM after 24 hrs by qRT-PCR analysis; format: functional, cell-based
# MDA-MB-231 [2] = assay: Inhibition of Wnt/beta-Catenin signaling in drug-tolerant human MDA-MB-231/lapatinib cells assessed as increase in nuclear expression of p-beta-catenin level at 20 uM incubated for 24 hrs by Western blot analysis
# MDA-MB-231 [3] = assay: Cell cycle arrest in human drug-tolerant MDA-MB-231/lapatinib cells assessed as accumulation at G2-M phase at 20 uM incubated for 24 hrs by PI staining based flow cytometry; format: functional
# MDA-MB-231 [4] = assay: Antiproliferative activity against human drug tolerant MDA-MB-231/lapatinib cells assessed as inhibition of cell growth in measured after 72 hrs by MTT assay; format: functional, cell-based; details: MDA-MB-231, 72 h
# [5] = target: T1, Aldehyde dehydrogenase 1A1 (Homo sapiens, UniProt P00352); assay: Inhibition of ALDH1A1 in human drug-tolerant MDA-MB-231/lapatinib cells assessed as after 24 hrs
# T1 sequence (P00352 whole entry): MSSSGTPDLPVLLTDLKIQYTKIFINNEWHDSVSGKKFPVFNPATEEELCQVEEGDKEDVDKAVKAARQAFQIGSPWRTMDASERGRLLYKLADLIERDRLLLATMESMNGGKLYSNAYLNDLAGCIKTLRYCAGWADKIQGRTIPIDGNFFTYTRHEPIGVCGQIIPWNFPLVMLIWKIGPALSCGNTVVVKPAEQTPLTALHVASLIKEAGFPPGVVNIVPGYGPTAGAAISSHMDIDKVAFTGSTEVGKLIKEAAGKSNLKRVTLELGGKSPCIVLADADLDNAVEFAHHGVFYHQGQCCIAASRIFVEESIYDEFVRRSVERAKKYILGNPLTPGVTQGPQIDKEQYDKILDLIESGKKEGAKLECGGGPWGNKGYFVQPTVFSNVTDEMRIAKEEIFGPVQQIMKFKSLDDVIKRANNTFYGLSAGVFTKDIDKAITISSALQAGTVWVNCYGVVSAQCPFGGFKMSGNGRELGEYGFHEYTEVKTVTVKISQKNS
# MDA-MB-231 [6] = assay: Antitumor activity against drug-tolerant human MDA-MB-231/lapatinib cells injected in BALB/c mouse assessed as tumor development measured after 8 weeks; format: functional, cell-based
# [7] = target: T2, Epidermal growth factor receptor (Homo sapiens, UniProt P00533); assay: Inhibition of exogenous EGFR (unknown origin)
# T2 sequence (P00533 whole entry): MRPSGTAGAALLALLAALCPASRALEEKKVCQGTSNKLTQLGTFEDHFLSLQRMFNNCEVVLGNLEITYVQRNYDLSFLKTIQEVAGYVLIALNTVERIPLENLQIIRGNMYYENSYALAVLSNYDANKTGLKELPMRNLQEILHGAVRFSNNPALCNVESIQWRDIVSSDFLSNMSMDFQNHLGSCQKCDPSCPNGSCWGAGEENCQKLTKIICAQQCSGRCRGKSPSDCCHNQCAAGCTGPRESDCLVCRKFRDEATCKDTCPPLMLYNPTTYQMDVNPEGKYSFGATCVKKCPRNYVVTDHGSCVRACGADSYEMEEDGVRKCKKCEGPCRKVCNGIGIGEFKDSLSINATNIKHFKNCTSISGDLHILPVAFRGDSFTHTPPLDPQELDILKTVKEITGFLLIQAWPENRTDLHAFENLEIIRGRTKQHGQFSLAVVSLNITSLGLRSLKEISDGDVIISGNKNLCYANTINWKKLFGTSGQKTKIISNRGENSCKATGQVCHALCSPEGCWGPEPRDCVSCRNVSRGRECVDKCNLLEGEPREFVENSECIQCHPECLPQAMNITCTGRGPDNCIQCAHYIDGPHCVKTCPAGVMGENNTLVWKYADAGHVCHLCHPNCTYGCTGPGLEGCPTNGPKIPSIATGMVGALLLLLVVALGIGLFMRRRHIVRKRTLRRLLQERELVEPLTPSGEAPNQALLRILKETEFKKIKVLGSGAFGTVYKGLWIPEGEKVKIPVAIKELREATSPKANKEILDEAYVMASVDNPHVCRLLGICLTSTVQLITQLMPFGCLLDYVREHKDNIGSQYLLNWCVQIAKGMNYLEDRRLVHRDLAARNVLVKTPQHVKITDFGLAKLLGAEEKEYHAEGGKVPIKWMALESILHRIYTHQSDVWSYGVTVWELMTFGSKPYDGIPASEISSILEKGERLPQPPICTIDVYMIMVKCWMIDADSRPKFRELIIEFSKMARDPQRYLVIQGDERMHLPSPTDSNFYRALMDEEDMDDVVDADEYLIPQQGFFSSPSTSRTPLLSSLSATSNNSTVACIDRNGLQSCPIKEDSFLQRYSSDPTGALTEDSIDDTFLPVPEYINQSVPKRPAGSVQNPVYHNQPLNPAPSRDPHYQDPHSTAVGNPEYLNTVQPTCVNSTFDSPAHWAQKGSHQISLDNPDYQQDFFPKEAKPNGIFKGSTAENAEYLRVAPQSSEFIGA
# MCF7 = assay: Antiproliferative activity against human MCF7 cells assessed as inhibition of cell growth measured after 72 hrs by MTT assay; format: functional, cell-based; details: MCF7, 72 h
# MDA-MB-231 [8] = assay: Antiproliferative activity against drug-tolerant human MDA-MB-231/lapatinib cells assessed as CD44+/CD24- cells measured at 20 uM after 24 hrs by MTT assay; format: functional
# [9] = target: T2, Epidermal growth factor receptor; assay: Inhibition of human EGFR in human drug-tolerant MDA-MB-231/lapatinib cells assessed as inhibition of phosphorylation Akt1/2/3 at Ser473 of measured after 24 hrs by Western blot analysis; details: dose 5-20 µM
# MDA-MB-231 [10] = assay: Inhibition of Wnt/beta-Catenin signaling in drug-tolerant human MDA-MB-231/lapatinib cells assessed as reduction in c-Myc mRNA level at 20 uM incubated for 24 hrs by qRT-PCR analysis
# [11] = target: T2, Epidermal growth factor receptor; assay: Inhibition of human EGFR in human MDA-MB-231 cells assessed as inhibition of phosphorylation Akt1/2/3 at Ser473 of measured after 24 hrs by Western blot analysis; format: cell-based; details: dose 5-20 µM
# MDA-MB-231 [12] = assay: Inhibition of cell stemness in human drug-tolerant MDA-MB-231/lapatinib cells assessed as inhibition of CD44+/CD24- expression at 20 uM after 24 hrs by flow cytometry analysis; format: functional
# MDA-MB-231 [13] = assay: Inhibition of Wnt/beta-Catenin signaling in drug-tolerant human MDA-MB-231/lapatinib cells assessed as reduction in MMP7 mRNA level at 20 uM incubated for 24 hrs by qRT-PCR analysis; format: tissue-based
# [14] = target: T2, Epidermal growth factor receptor; assay: Inhibition of human EGFR phosphorylation in human MDA-MB-231 cells measured after 24 hrs by Western blot analysis; format: cell-based; details: dose 5-20 µM
# [15] = Resistant factor, ratio of IC50 for antiproliferative activity against drug-tolerant human MDA-MB-231 cells to IC50 for human MDA-MB-231 cells; format: functional
# MDA-MB-231 [16] = assay: Inhibition of cell stemness in human drug-tolerant MDA-MB-231/lapatinib cells assessed as inhibition of SOX-2 expression at 20 uM after 24 hrs by qRT-PCR analysis; format: functional, cell-based
# [17] = Octanol/water partition coefficient, log P of the compound by shake flask method based thermodynamic solubility assay; format: physicochemical
# MDA-MB-231 [18] = assay: Inhibition of colony formation in human drug-tolerant MDA-MB-231/lapatinib cells at 5 uM measured after 24 hrs; format: functional
# MDA-MB-231 [19] = assay: Inhibition of cell migration in human drug-tolerant MDA-MB-231/lapatinib cells at 20 uM; format: functional
# MDA-MB-231 [20] = assay: Cell cycle arrest in human MDA-MB-231 cells assessed as accumulation at G2-M phase at 20 uM incubated for 24 hrs by PI staining based flow cytometry; format: functional
# MDA-MB-231 [21] = assay: Cell cycle arrest in human MDA-MB-231 cells assessed as increase in accumulation at S phase at 20 uM incubated for 24 hrs by PI staining based flow cytometry; format: functional
# [22] = target: T2, Epidermal growth factor receptor; assay: Inhibition of human EGFR phosphorylation in human drug-tolerant MDA-MB-231/lapatinib cells measured after 24 hrs by Western blot analysis; details: dose 5-20 µM
# MDA-MB-231 [23] = assay: Inhibition of Wnt/beta-Catenin signaling in drug-tolerant human MDA-MB-231/lapatinib cells assessed as reduction in p-GSK3beta level at 20 uM incubated for 24 hrs by Western blot analysis
# MDA-MB-231 [24] = assay: Inhibition of cell invasion in human MDA-MB-231/lapatinib cells at 20 uM; format: functional
# MDA-MB-231 [25] = assay: Inhibition of Wnt/beta-Catenin signaling in drug-tolerant human MDA-MB-231/lapatinib cells assessed as reduction in S100A4 mRNA level at 20 uM incubated for 24 hrs by qRT-PCR analysis
# MDA-MB-231 [26] = assay: Antiproliferative activity against human MDA-MB-231 cells assessed as inhibition of cell growth measured after 72 hrs by MTT assay; format: functional, cell-based; details: MDA-MB-231, 72 h
# MDA-MB-231 [27] = assay: Inhibition of cell stemness in human drug-tolerant MDA-MB-231/lapatinib cells assessed as inhibition of OCT4 expression at 20 uM after 24 hrs by qRT-PCR analysis; format: functional, cell-based
# MDA-MB-231 [28] = assay: Potency index, ratio of lapatinib IC50 to test compound IC50 for induction of apoptosis in drug-tolerant human MDA-MB-231 cells/lapatinib cells assessed as apoptotic rate at 20 uM measured after 24 hrs by flow cytometry; format: functional
# MDA-MB-231 [29] = assay: Inhibition of cell stemness in drug-tolerant human MDA-MB-231/lapatinib cells assessed as inhibition of Notch expression at 20 uM after 24 hrs by flow cytometry; format: functional, cell-based
# MDA-MB-231 [30] = assay: Induction of apoptosis in drug-tolerant human MDA-MB-231 cells/lapatinib cells assessed as apoptotic rate at 20 uM measured after 24 hrs by flow cytometry; format: functional
# MDA-MB-231 [31] = assay: Cell cycle arrest in human drug-tolerant MDA-MB-231/lapatinib cells assessed as increase in accumulation at S phase at 20 uM incubated for 24 hrs […]; format: functional, cell-based
# MDA-MB-231 [32] = assay: Inhibition of Wnt/beta-Catenin signaling in drug-tolerant human MDA-MB-231/lapatinib cells assessed as reduction in beta-catenin level at 20 uM incubated for 24 hrs by Western blot analysis
# [33] = target: T2, Epidermal growth factor receptor; assay: Inhibition of human EGFR in human drug-tolerant MDA-MB-231/lapatinib cells assessed as inhibition of phosphorylation ERK1/2 at T202/Y204 of measured after 24 hrs by Western blot analysis; details: dose 5-20 µM
# MDA-MB-231 [34] = assay: Induction apoptosis in MDA-MB-231/ lapatinib cells assessed as apoptotic cells at 20 uM measured after 24 hrs by propidium iodide staining based flow cytometric analysis; format: functional, cell-based; details: Homo sapiens
# [35] = target: T2, Epidermal growth factor receptor; assay: Inhibition of human EGFR in human MDA-MB-231 cells assessed as inhibition of phosphorylation ERK1/2 at T202/Y204 of measured after 24 hrs by Western blot analysis; format: cell-based; details: dose 5-20 µM
# HUVEC = assay: Antiproliferative activity against human HUVEC cells assessed as inhibition of cell growth in measured after 72 hrs by MTT assay; format: cell-based
# MDA-MB-231 [36] = assay: Inhibition of cell stemness in drug-tolerant human MDA-MB-231/lapatinib cells assessed as inhibition of Jagged expression at 20 uM after 24 hrs by flow cytometry; format: functional, cell-based
# MDA-MB-231 [37] = assay: Inhibition of Wnt/beta-Catenin signaling in drug-tolerant human MDA-MB-231/lapatinib cells assessed as reduction in cyclin D1 mRNA level at 20 uM incubated for 24 hrs by qRT-PCR analysis
# MDA-MB-231 [38] = assay: Antiproliferative activity against drug-tolerant human MDA-MB-231/lapatinib cells assessed as CD44-positive cells measured after 24 hrs by MTT assay; format: functional, cell-based; details: MDA-MB-231, 24 h
structure (smiles),measurement,setting,value
CS(=O)(=O)CCN(Cc1ccc(-c2ccc3ncnc(Nc4ccc(OCc5cccc(F)c5)c(Cl)c4)c3c2)o1)C(=O)CCC(=O)OCCN1CCN(CCCN2c3ccccc3Sc3ccc(Cl)cc32)CC1,inhibition,MDA-MB-231 [1],Active
same,inhibition,MDA-MB-231 [2],Active
same,Activity,MDA-MB-231 [3],Active
same,IC50,MDA-MB-231 [4],1.03 µM
same,IC50,[5],0.0864 µM
same,Activity,MDA-MB-231 [6],Active
same,IC50,[7],0.0105 µM
same,IC50,MCF7,3.62 µM
same,inhibition at 20 µM,MDA-MB-231 [8],72.9%
same,inhibition,[9],Dose-Dependent Effect
same,inhibition,MDA-MB-231 [10],Active
same,inhibition,[11],Active
same,inhibition at 20 µM,MDA-MB-231 [12],0.56%
same,inhibition,MDA-MB-231 [13],Active
same,inhibition,[14],Dose-Dependent Effect
same,Ratio IC50,[15],0.67
same,inhibition,MDA-MB-231 [16],Active
same,logP,[17],2.49
same,inhibition at 5 µM,MDA-MB-231 [18],10.9%
same,inhibition at 20 µM,MDA-MB-231 [19],13.2%
same,Activity,MDA-MB-231 [20],Active
same,Activity,MDA-MB-231 [21],Active
same,inhibition,[22],Dose-Dependent Effect
same,inhibition,MDA-MB-231 [23],Active
same,inhibition at 20 µM,MDA-MB-231 [24],56.3%
same,inhibition,MDA-MB-231 [25],Active
same,IC50,MDA-MB-231 [26],1.54 µM
same,inhibition,MDA-MB-231 [27],Active
same,Ratio IC50,MDA-MB-231 [28],2.23
same,inhibition,MDA-MB-231 [29],Active
same,Activity,MDA-MB-231 [30],72%
same,Activity,MDA-MB-231 [31],Active
same,inhibition,MDA-MB-231 [32],Active
same,inhibition,[33],Dose-Dependent Effect
same,Activity,MDA-MB-231 [34],Active
same,inhibition,[35],Active
same,IC50,HUVEC,89.2 µM
same,inhibition,MDA-MB-231 [36],Active
same,inhibition,MDA-MB-231 [37],Active
same,IC50,MDA-MB-231 [38],0.56 µM
OCCN1CCN(CCCN2c3ccccc3Sc3ccc(Cl)cc32)CC1 [PERPHENAZINE],IC50,MDA-MB-231 [4],31.8 µM
same,IC50,[5],0.524 µM
same,IC50,MCF7,35.8 µM
same,Ratio IC50,[15],1.05
same,IC50,MDA-MB-231 [26],30.4 µM
same,IC50,HUVEC,97.8 µM
OCCN1CCN(CCCN2c3ccccc3Sc3ccc(C(F)(F)F)cc32)CC1 [FLUPHENAZINE],IC50,MDA-MB-231 [4],18.6 µM
same,IC50,MCF7,24.6 µM
same,Ratio IC50,[15],0.86
same,IC50,MDA-MB-231 [26],16.7 µM
same,IC50,HUVEC,38 µM
CC(OC(=O)CCC(=O)N(CCS(C)(=O)=O)Cc1ccc(-c2ccc3ncnc(Nc4ccc(OCc5cccc(F)c5)c(Cl)c4)c3c2)o1)c1cc2c(o1)C(=O)c1ccccc1C2=O (stereo unspecified),IC50,MDA-MB-231 [4],5.82 µM
same,IC50,MCF7,3.97 µM
same,Ratio IC50,[15],1.62
same,IC50,MDA-MB-231 [26],3.61 µM
same,IC50,HUVEC,56.6 µM
CS(=O)(=O)CCN(Cc1ccc(-c2ccc3ncnc(Nc4ccc(OCc5cccc(F)c5)c(Cl)c4)c3c2)o1)C(=O)CCC(=O)OCCN1CCN(CCCN2c3ccccc3Sc3ccc(C(F)(F)F)cc32)CC1,IC50,MDA-MB-231 [4],3.42 µM
same,IC50,MCF7,6.38 µM
same,Ratio IC50,[15],1.17
same,IC50,MDA-MB-231 [26],2.98 µM
same,IC50,HUVEC,39.6 µM
